Assay results published in patent publication US10206937B2, “Boronic acid derivatives and therapeutic uses thereof” (Qpex Biopharma, Inc., priority 2014, dated 2019).

System: strains of Enterobacteriaceae producing various carbapenemases (class A, D and B; 104 strains)
Assay: Antibiotics potentiation by Compound 27 (MIC; meropenem, doripenem, ertapenem, cefepime)
Type: cell-based
Conditions: + 27 = with Compound 27 at fixed 4 μg/ml

For `C[C@@H](O)[C@H]1C(=O)N2C(C(=O)O)=C(S[C@@H]3CN[C@H](C(=O)Nc4cccc(C(=O)O)c4)C3)[C@H](C)[C@H]12` [E], the MIC (strain CF1012 Citrobacter freundii (KPC-2)) was “Z (MIC of greater than 10 μg/mL)”, the MIC (strain CF1021 Citrobacter freundii (CMY-type; VIM-1)) was “Y (MIC of 1 μg/mL to 10 μg/mL)” and the MIC (strain CF1022 Citrobacter freundii (SHV-12(2be), TEM-OSBL(2b); IMP-8)) was “Y (MIC of 1 μg/mL to 10 μg/mL)”. For the same compound, the MIC (strain CF1023 Citrobacter freundii (SHV-12(2be), TEM-OSBL(2b); CTX-M-3; CMY-34; NDM-1)) was “Z (MIC of greater than 10 μg/mL)”, the MIC (strain CL1080 Enterobacter cloacae (IMP-1)) was “Y (MIC of 1 μg/mL to 10 μg/mL)” and the MIC (strain EA1019 Enterobacter aerogenes (SHV-5, VIM-1)) was “Z (MIC of greater than 10 μg/mL)”. The MIC (strain EC1007 Escherichia coli (KPC-3)) was “X (MIC of less than 1 μg/mL)”, the MIC (strain EC1061 Escherichia coli (NDM-1, CMY-6)) was “Z (MIC of greater than 10 μg/mL)” and the MIC (strain EC1062 Escherichia coli (OXA-48, CTX-M-15)) was “Y (MIC of 1 μg/mL to 10 μg/mL)”. The MIC (strain EC1064 Escherichia coli (NDM-1, CMY-6, CTX-M-15)) was “Z (MIC of greater than 10 μg/mL)”, the MIC (strain EC1065 Escherichia coli (IMP-1)) was “Y (MIC of 1 μg/mL to 10 μg/mL)” and the MIC (strain EC1068 Escherichia coli (VIM-1)) was “Z (MIC of greater than 10 μg/mL)”. The MIC (strain EC1069 Escherichia coli (CTX-M-27; NDM-1)) was “Z (MIC of greater than 10 μg/mL)”, the MIC (strain EC1070 Escherichia coli (TEM-OSBL(2b); CMY-42; NDM-5)) was “Z (MIC of greater than 10 μg/mL)” and the MIC (strain EC1072 Escherichia coli (CTX-M-3; NDM-1)) was “Z (MIC of greater than 10 μg/mL)”. For the same compound, the MIC (strain ECL1004 Enterobacter cloacae (NMC-A)) was “Z (MIC of greater than 10 μg/mL)”, the MIC (strain ECL1026 Enterobacter cloacae (KPC-2, TEM-1)) was “Z (MIC of greater than 10 μg/mL)” and the MIC (strain ECL1036 Enterobacter cloacae (KPC-3, TEM-1)) was “Y (MIC of 1 μg/mL to 10 μg/mL)”. For the same compound, the MIC (strain ECL1045 Enterobacter cloacae (VIM-1)) was “Z (MIC of greater than 10 μg/mL)”, the MIC (strain ECL1055 Enterobacter cloacae (KPC-3, TEM)) was “Z (MIC of greater than 10 μg/mL)” and the MIC (strain ECL1057 Enterobacter cloacae (NDM-1, TEM-1, CTX-M-15)) was “Z (MIC of greater than 10 μg/mL)”. The MIC (strain ECL1058 Enterobacter cloacae (KPC-3, SHV-11, TEM-1)) was “Z (MIC of greater than 10 μg/mL)”, the MIC (strain ECL1059 Enterobacter cloacae (KPC-3, SHV-12, TEM-1)) was “Y (MIC of 1 μg/mL to 10 μg/mL)” and the MIC (strain ECL1061 Enterobacter cloacae (KPC-3, Hyper AmpC expression)) was “Z (MIC of greater than 10 μg/mL)”. For the same compound, the MIC (strain ECL1082 Enterobacter cloacae (VIM-1)) was “Y (MIC of 1 μg/mL to 10 μg/mL)”, the MIC (strain ECL1084 Enterobacter cloacae (CTX-M-15; ACT-16; NDM-1)) was “Z (MIC of greater than 10 μg/mL)” and the MIC (strain ECL1085 Enterobacter cloacae (SHV-31(2be), TEM-1(2b); CTX-M-15; NDM-1)) was “Z (MIC of greater than 10 μg/mL)”. The MIC (strain ECL1086 Enterobacter cloacae (VIM-31, OXA-48(c))) was “Z (MIC of greater than 10 μg/mL)”, the MIC (strain ECL1087 Enterobacter cloacae (VIM-1)) was “Z (MIC of greater than 10 μg/mL)” and the MIC (strain ECL1088 Enterobacter cloacae (TEM-1(2b); CTX-M-14; ACT-type; VIM-1)) was “Z (MIC of greater than 10 μg/mL)”. The MIC (strain ECL1089 Enterobacter cloacae (ACT-type; IMP-1)) was “Z (MIC of greater than 10 μg/mL)”, the MIC (strain ECL1090 Enterobacter cloacae (TEM-1(2b); CTX-M-22; ACT-type; IMP-8)) was “Y (MIC of 1 μg/mL to 10 μg/mL)” and the MIC (strain ECL1091 Enterobacter cloacae (VIM-1)) was “Y (MIC of 1 μg/mL to 10 μg/mL)”. For the same compound, the MIC (strain ECL1092 Enterobacter cloacae (TEM-OSBL(2b); ACT-32; VIM-1)) was “Y (MIC of 1 μg/mL to 10 μg/mL)”, the MIC (strain ECL1093 Enterobacter cloacae (TEM-OSBL(2b); ACT-32; VIM-1)) was “Y (MIC of 1 μg/mL to 10 μg/mL)” and the MIC (strain ECL1094 Enterobacter cloacae (VIM-1)) was “Z (MIC of greater than 10 μg/mL)”. For the same compound, the MIC (strain ECL1096 Enterobacter cloacae (CMY-4, VIM-4, OXA-48(c))) was “Z (MIC of greater than 10 μg/mL)”, the MIC (strain ECL1097 Enterobacter cloacae (SHV-31(2be), TEM-OSBL(2b); CTX-M-15; ACT-31; NDM-1)) was “Z (MIC of greater than 10 μg/mL)” and the MIC (strain ECL1098 Enterobacter cloacae (TEM-OSBL(2b); DHA-1; ACT-16; NDM-1)) was “Z (MIC of greater than 10 μg/mL)”. For the same compound, the MIC (strain KP1001 Klebsiella pneumoniae (KPC TEM SHV)) was “Z (MIC of greater than 10 μg/mL)”, the MIC (strain KP1002 Klebsiella pneumoniae (KPC TEM SHV)) was “Y (MIC of 1 μg/mL to 10 μg/mL)” and the MIC (strain KP1003 Klebsiella pneumoniae (KPC TEM SHV)) was “Z (MIC of greater than 10 μg/mL)”. The MIC (strain KP1004 Klebsiella pneumoniae (KPC-2, TEM-1, SHV-11)) was “Z (MIC of greater than 10 μg/mL)”, the MIC (strain KP1008 Klebsiella pneumoniae (KPC-2)) was “Y (MIC of 1 μg/mL to 10 μg/mL)” and the MIC (strain KP1014 Klebsiella pneumoniae (VIM-1, TEM, SHV)) was “Y (MIC of 1 μg/mL to 10 μg/mL)”. The MIC (strain KP1054 Klebsiella pneumoniae (VIM-1, SHV-11)) was “Y (MIC of 1 μg/mL to 10 μg/mL)”, the MIC (strain KP1059 Klebsiella pneumoniae (VIM-1, SHV-11)) was “Z (MIC of greater than 10 μg/mL)” and the MIC (strain KP1061 Klebsiella pneumoniae (KPC-3, SHV-11, TEM-1)) was “Z (MIC of greater than 10 μg/mL)”. For the same compound, the MIC (strain KP1064 Klebsiella pneumoniae (KPC-2, SHV-11, TEM-1)) was “Z (MIC of greater than 10 μg/mL)”, the MIC (strain KP1065 Klebsiella pneumoniae (VIM-1, SHV-11)) was “Y (MIC of 1 μg/mL to 10 μg/mL)” and the MIC (strain KP1070 Klebsiella pneumoniae (KPC-2, SHV-11, TEM-1)) was “Z (MIC of greater than 10 μg/mL)”. The MIC (strain KP1074 Klebsiella pneumoniae (KPC-3, SHV-11, TEM)) was “Z (MIC of greater than 10 μg/mL)”.
